Test results reported in patent publication US12404345B2, “Humanized antibodies against iRHOM2” (SCIRHOM GMBH, priority 2021, dated 2025).

Columns and labels:
[1] = system: PMA-induced release of endogenous IL-6R from human PBMCs from healthy donors; experiment: ELISA-based IL-6R release assay, PMA-induced, PBMCs from healthy donors; format: cell-based; conditions: PBMC, Batimastat 10 μM, PMA 25 ng/ml, 24 hours
Description: In the following study, ELISA-based IL-6R release assays were performed to analyze the inhibitory effects of the antibodies of the invention on PMA-induced release of endogenous IL-6R from primary human material obtained from healthy donors using peripheral blood mononuclear cells (PBMCs).
In brief, on day 1, Nunc black MaxiSorp® 96-well plates (Thermo Fisher Scientific, USA) were coated overnight with 100 μl per well of mouse anti-human IL-6R capture antibody (provided as part of the DuoSet ELISA kit) at 2 μg/ml TBS at 4° C. […]
Meanwhile, the 96-well plates were centrifuged to pellet cells. […] Using an infinite M1000 (Tecan Group, Switzerland) microplate reader, the fluorescence of each well was collected at an excitation wavelength of 435 nm and an emission wavelength of 555 nm.

[2] = biological target: T1, human iRhom2 variant hiR2-FL-K536A-T7 (Homo sapiens, UniProt Q6PJF5, K536A); experiment: FACS epitope mapping on MEF-DKO-hiR2-FL-K536A-T7 cells; format: binding; conditions: antibody at 3 μg/ml, compared with MEF-DKO-hiR2-FL-WT-T7 cells
T1 construct: expressed in transfected cells; host or cells: immortalized iRhom1/2-/- DKO mouse embryonic fibroblasts, pMSCV retroviral infection
T1 sequence (Q6PJF5 1-856 K536A): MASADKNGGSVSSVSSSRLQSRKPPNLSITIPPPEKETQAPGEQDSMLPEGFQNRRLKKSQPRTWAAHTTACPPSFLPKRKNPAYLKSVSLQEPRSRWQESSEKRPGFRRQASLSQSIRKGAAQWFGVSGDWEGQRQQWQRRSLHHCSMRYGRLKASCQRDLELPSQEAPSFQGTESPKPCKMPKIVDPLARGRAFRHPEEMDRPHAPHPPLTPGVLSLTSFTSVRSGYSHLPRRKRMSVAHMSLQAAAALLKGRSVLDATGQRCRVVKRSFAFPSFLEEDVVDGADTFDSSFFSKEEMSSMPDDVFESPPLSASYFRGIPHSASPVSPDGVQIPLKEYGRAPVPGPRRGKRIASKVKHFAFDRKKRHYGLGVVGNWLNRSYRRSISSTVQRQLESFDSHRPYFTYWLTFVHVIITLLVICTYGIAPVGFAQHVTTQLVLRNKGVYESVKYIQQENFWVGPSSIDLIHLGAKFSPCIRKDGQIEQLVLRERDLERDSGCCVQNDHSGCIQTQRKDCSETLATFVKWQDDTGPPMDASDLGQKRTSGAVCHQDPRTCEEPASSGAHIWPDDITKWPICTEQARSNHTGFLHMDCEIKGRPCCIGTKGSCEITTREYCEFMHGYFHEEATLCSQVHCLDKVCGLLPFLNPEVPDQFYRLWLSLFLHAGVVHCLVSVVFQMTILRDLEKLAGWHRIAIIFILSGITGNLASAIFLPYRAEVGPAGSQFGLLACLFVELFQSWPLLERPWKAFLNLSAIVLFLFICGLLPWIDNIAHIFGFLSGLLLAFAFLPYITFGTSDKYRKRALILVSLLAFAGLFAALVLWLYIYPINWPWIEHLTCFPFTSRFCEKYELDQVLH
Source text: This example describes the generation of iRhom1/2−/− DKO MEF populations expressing the 137 single amino acid substitution or deletion variants as well as their characterization in terms of cell surface localization and functional activity as indicators of proper protein conformation. Subsequently, binding analyses of the humanized antibodies 16-B-03, 16-B-05, 16-B-07, 23-B-04, 42-B-02 and 42-B-04 of the invention on the entire panel of 137 engineered MEF populations expressing human iRhom2 variants with single amino acid substitutions or deletions are described.
In brief, on day 1, Phoenix-ECO cells (American Type Culture Collection, USA) were seeded on 6-well tissue culture plates (Greiner, Germany) in standard growth medium at 8×10^5 cells per well and kept overnight at 37° C., 5% CO2. On day 2, the medium was replaced by fresh medium supplemented with chloroquine (Sigma-Aldrich, USA) at a final concentration of 25 μM. […]

CNC(=O)[C@H](Cc1ccccc1)NC(=O)[C@H](CC(C)C)[C@H](CSc1cccs1)C(=O)NO [Batimastat]
inhibition at 10 µM [1]: 96.2%

B1: 42-B-02: humanized antibody binding human iRhom2; HCVD SEQ ID NO 33, LCVD SEQ ID NO 37 (antibody, V domains shown)
VH: QVTLRESGPALVKPTQTLTLTCTFSGFSLSTFGRGVGWIRQPPGKALEWLAHIWWDDEKYYNSALKSRLTISKDTSKNQVVLTITNMDPVDTATYYCARIQNYGSNYWYFDVWGQGTLVTVSS
VL: AIQLTQSPSSLSASVGDRVTITCRASSRISYMFWYQQKPGKAPKVLIYDTSNLASGVPSRFSGSGSGTDYTLTISSLQPEDFATYYCQQWNSYPLTFGQGTKLEIK
modifications: antibody sequences
effect of substitution of lysine 536 of human iRhom2 by alanine on antibody binding (MEF-DKO-hiR2-FL-K536A-T7 cells) [2]: strongly impairs
